Results taken from patent publication US9149489B2, “Inhibitors of glycolysis useful in the treatment of brain tumors” (Board of Regents, University of Texas System, priority 2006, dated 2015).
Read-outs that look alike come from different tables or passages of the source.

Assays:
U87 glioblastoma cells [1] = experiment: U87 cell viability assay with co-treatment by D-glucose, D-mannose or D-galactose (competition); type: cell-based, human; conditions: for Viability Protection by D-Mannose Under Hypoxia (IC50 shift) / Viability Protection by D-Mannose Under Normoxia (IC50 shift): co-treatment with 0.1 mM of D-mannose; for Viability Protection by D-Galactose Under Hypoxia (IC50 shift) / Viability Protection by D-Galactose Under Normoxia (IC50 shift): co-treatment with 5 mM of D-galactose; for Viability Protection by D-Glucose Under Hypoxia (IC50 shift) / Viability Protection by D-Glucose Under Normoxia (IC50 shift): co-treatment with 5 mM of D-glucose
Method: (§1) Cell viability experiments were carried out in U87 glioblastoma cells with 8000 cells/well in flat bottom 96 well plates. The cells were grown in low glucose (5.4 mM) DMEM/F12 media with 10% FBS and antibiotics. 24 hours after plating, cells were treated with increasing concentration of 2-deoxy-2,2-difluoro-D-arabino-hexopyranose (DFG) for 72 hours in normoxic (21% O2) or hypoxic (0.1% O2) conditions. In addition, to test the ability of monosachamides to compete with DFG in inhibiting glycolysis and glycosylation, cells were treated with increasing concentrations of glucose, mannose or galactose. The experiments were carried out in duplicate (n=2).
(§2) U87 human glioma cancer cells were obtained from the American Type Culture Collection (Manassas, Va.) and maintained in a humidified atmosphere containing 5% CO2 at 37° C. Cells were routinely cultured in DMEM/F12 medium (Invitrogen Corp., Grand Island, N.Y.) supplemented with 10% heat inactivated fetal bovine serum (Hyclone Laboratories Inc., Logan, Utah), 50 IU/ml penicillin and […] streptomycin from GIBCO (Invitrogen). Cell viability experiments were carried out in U87 cells with 8000 cells/well in flat bottom 96 well plates. The cells were grown in low glucose (5.4 mM) DMEM/F12 media supplied with 10% FBS and antibiotics. 24 hours after plating, cells were treated with increasing concentration (1 to 10 mM) of 2-difluoro-D-glucose (DFG) for 72 hours in normoxic (21% O2) or hypoxic (approximately 0.1% O2) conditions. To test the competing ability of glucose, galactose and mannose with DFG, the cells were also treated with increasing concentration of the glucose (5, 10, and 20 mM), galactose (5, 10, and 20 mM) or mannose (0.1, 1, and 5 mM). The experiments were carried out in duplicate (n=2). After 72 hours of treatment, inhibition of cellular proliferation was assessed by the MTT assay. Absorbance was read at a wavelength of 570 nm using a V Max Micro plate reader by Molecular Devices, Inc. (Sunnyvale, Calif.). The cytoctoxicity of 2-DFG was calculated by normalization to the 100% viability of the control (untreated cells) and presented as percent control.

orthotopic glioma model = experiment: Orthotopic glioma model, antitumor activity in vivo; conditions: compared with temozolomide
U87 cells [2] = experiment: Transmission electron microscopy / detection of autophagosomes; type: cell-based, human
Method: FIGS. 16a through 16d provides electron micrographs of 2-DFG induced autophagy in U87 cells (5 mM, 72 h treatment, 5.6 mM low glucose media).
(§3) To test the ability of the 2-DFG to induce autophagic cell death, we monitored the increase in acidic vesicular organelles (AVO) using acridine orange staining in U87 cells treated with increasing concentrations of 2-DFG for 72 hours under hypoxia and normoxia. […] Therefore, targeting the energetic metabolism of cancer cells and the autophagic survival response using inhibitors of glycolysis is a promising therapeutic approach for the treatment of cancers that are dependent on glycolysis for survival.

U87 glioblastoma cells [3] = experiment: U87 cell viability (MTT) assay under normoxia and hypoxia; type: cell-based, human; conditions: for IC50: Homo sapiens, U-87 MG, 72 h
Method: as §1, §2

U87 cells [4] = experiment: Acridine orange staining of acidic vesicular organelles (AVO), autophagy; type: cell-based, human; conditions: 72 hours, increasing concentrations, hypoxia and normoxia
Method: FIGS. 14a through 14f provide the quantification of 2-DFG induced autophagy in U87 glioma cells after 72 h of normoxia treatment in 5.6 mM low glucose media using acridine orange-acid vesicular organelles (AVO) straining assay.
FIGS. 15a through 15f provide the quantification of 2-DFG induced autophagy in U87 glioma cells after 72 h of hypoxia treatment in 5.6 mM low glucose media using acridine orange-acid vesicular organelles (AVO) straining assay.
as §3

U87 cells [5] = experiment: Cell cycle analysis; type: cell-based, human; conditions: 5 mM, 72 h
[6] = hypoxia (0.1% O2), 72 hours, low glucose media, read-out: Inhibition under Hypoxia (IC50, U87 cell viability)
[7] = normoxia (21% O2), 72 hours, low glucose media, read-out: Inhibition under Normoxia (IC50, U87 cell viability)

SMILES | Viability Protection by D-Mannose Under Hypoxia (IC50 shift) (U87 glioblastoma cells [1]) | Viability Protection by D-Galactose Under Hypoxia (IC50 shift) (U87 glioblastoma cells [1]) | Viability Protection by D-Glucose Under Hypoxia (IC50 shift) (U87 glioblastoma cells [1]) | Viability Protection by D-Mannose Under Normoxia (IC50 shift) (U87 glioblastoma cells [1]) | Viability Protection by D-Galactose Under Normoxia (IC50 shift) (U87 glioblastoma cells [1]) | Viability Protection by D-Glucose Under Normoxia (IC50 shift) (U87 glioblastoma cells [1]) | Antitumor activity in vivo (orthotopic glioma model) | Stimulation of autophagy (detection of autophagosomes after treatment) (U87 cells [2]; U87 Glioblastoma cells, preliminary studies) | IC50 (U87 glioblastoma cells [3]; [6]) [µM] | IC50 (U87 glioblastoma cells [3]; [7]) [µM] | Acidic vesicular organelles (AVO), acridine orange staining (U87 cells [4]) | Autophagosomes by electron microscopy (U87 cells [2]; 5 mM, 72 h treatment, normoxia) | Cell cycle distribution: G2/M phase (U87 cells [5]) | Cell cycle distribution: Sub G0/G1 phase (U87 cells [5]) | IC50 (U87 glioblastoma cells [3]; hypoxic conditions (0.1% O2), read-out: IC50 (cytotoxicity in U87 cells)) [µM] | IC50 (U87 glioblastoma cells [3]; normoxic conditions (21% O2), read-out: IC50 (cytotoxicity in U87 cells)) [µM] | Concentration giving substantial inhibition of cellular growth (U87 glioblastoma cells [3]; hypoxic conditions) | Concentration required for substantial inhibition of cellular growth (U87 glioblastoma cells [3]; normoxic conditions)
O=CC[C@@H](O)[C@H](O)[C@H](O)CO [2-DG, 2-Deoxy-D-glucose, reference compound] | ++ (~1.5-2 mM IC50 shift after co-treatment with 0.1 mM of D-mannose) | − (0-0.5 mM IC50 shift after co-treatment with 5 mM of D-galactose.) | +++ (>5 mM IC50 shift after co-treatment with 5 mM of D-glucose) | +++ (>5 mM IC50 shift after co-treatment with 0.1 mM of D-mannose) | − (0-0.5 mM IC50 shift after co-treatment with 5 mM of D-galactose.) | + (~1 mM IC50 shift after co-treatment with 5 mM of D-glucose) | comparable to that of temozolomide | able to stimulate the process of autophagy | ≥ 1800 | ≥ 1800 |  |  |  |  |  |  |  | 
O=C[C@H](F)[C@@H](O)[C@H](O)[C@H](O)CO [2-FG, 2-fluoro-2-deoxy-D-glucose] |  |  |  |  |  |  | comparable to that of temozolomide |  |  |  |  |  |  |  |  |  |  | 
O=C[C@@H](F)[C@@H](O)[C@H](O)[C@H](O)CO [2-FM, 2-fluoro-2-deoxy-D-mannose] |  |  |  |  |  |  | comparable to that of temozolomide |  |  |  |  |  |  |  |  |  |  | 
OC[C@H]1OC(O)C(F)(F)[C@@H](O)[C@@H]1O (stereo partly drawn) [DFG, 2-Deoxy-2,2-difluoro-D-arabino-hexopyranose] | − (0-0.5 mM IC50 shift after co-treatment with 0.1 mM of D-mannose) | − (0-0.5 mM IC50 shift after co-treatment with 5 mM of D-galactose.) | ++ (~1.5-2 mM IC50 shift after co-treatment with 5 mM of D-glucose) | + (~1 mM IC50 shift after co-treatment with 0.1 mM of D-mannose) | − (0-0.5 mM IC50 shift after co-treatment with 5 mM of D-galactose.) | + (~1 mM IC50 shift after co-treatment with 5 mM of D-glucose) |  |  | 1500 to 1800 | ≥ 1800 | concentration dependent increase in acridine orange staining | extensive presence of autophagosomes | significant increase in G2/M phase | no significant increase in Sub G0/G1 phase | 1200 | 2900 | lower than 4 mM | above 6 mM
